Results reported in patent US20130190407A1, “CALCIUM RECEPTOR-ACTIVE MOLECULES” (NPS Pharmaceuticals, Inc., priority 1991, published 2013).

Tests used:
HuPCaR 5.2 = target: T1, HuPCaR 5.2 (Homo sapiens, UniProt P41180, E1011Q/Q926R); experiment: [Ca2+]i (fura-2) in HEK293 cells transfected with HuPCaR 5.2; assay type: cell-based
T1 construct: appear to be full-length clones corresponding to the 5 Kb mRNA; expressed in transfected cells; host or cells: HEK293 cells, hygromycin-selected pool, Cep4B vector with the HuPCaR 5.2 insert
T1 sequence (P41180 20-1088 isoform P41180-2 Q936R/E1021Q): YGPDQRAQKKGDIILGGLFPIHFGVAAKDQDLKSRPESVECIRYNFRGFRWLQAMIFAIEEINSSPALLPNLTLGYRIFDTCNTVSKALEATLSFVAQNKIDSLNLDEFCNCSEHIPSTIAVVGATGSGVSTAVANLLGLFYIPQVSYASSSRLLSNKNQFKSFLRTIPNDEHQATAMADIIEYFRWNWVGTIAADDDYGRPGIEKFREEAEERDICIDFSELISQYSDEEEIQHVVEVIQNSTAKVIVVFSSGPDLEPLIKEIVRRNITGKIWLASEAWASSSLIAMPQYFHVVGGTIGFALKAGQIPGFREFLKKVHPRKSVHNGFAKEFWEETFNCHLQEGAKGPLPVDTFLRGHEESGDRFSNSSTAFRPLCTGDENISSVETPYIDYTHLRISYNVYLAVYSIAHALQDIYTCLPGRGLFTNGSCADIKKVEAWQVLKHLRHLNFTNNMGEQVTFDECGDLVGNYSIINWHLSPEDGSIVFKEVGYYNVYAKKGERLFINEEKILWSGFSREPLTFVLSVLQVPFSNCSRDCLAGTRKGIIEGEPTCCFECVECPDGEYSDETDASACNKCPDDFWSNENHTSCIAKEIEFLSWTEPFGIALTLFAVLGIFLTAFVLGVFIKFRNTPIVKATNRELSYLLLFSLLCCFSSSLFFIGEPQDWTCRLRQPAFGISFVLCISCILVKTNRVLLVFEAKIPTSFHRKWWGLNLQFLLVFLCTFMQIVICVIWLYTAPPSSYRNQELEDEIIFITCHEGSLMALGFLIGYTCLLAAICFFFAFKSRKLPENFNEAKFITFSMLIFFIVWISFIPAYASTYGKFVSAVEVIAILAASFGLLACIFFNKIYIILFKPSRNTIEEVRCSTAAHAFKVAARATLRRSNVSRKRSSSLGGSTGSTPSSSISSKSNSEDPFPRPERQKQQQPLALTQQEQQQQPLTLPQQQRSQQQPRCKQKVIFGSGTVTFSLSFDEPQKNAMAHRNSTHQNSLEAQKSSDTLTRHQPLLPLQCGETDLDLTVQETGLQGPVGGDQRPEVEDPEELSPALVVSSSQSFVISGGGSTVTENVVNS
Procedure: Cells obtained from the pool of hygromycin selected HEK293 cells transfected with Cep4B containing the HuPCaR 5.2 insert were plated on collagen coated Aklar squares which had been placed into individual wells of 12-well tissue culture plates. Two to six days later, medium was removed and the cells washed with balanced salt solution and 1 ml of buffer containing 1 μM fura2-AM, 1 mM CaCl2 and 0.1% BSA and 1 mM CaCl2. Measurements of fluorescence in response to calcium receptor agonists were performed at 37° C. in a spectrofluorimeter using excitation and emission wavelengths of 340 and 510 nm, respectively. For signal calibration, Fmax was determined after addition of ionomycin (40 μM) and the apparent Fmin was determined by addition of 0.3 M EGTA, 2.5 M Tris-HCl; pH 10.

[1] = tested on: healthy, post-menopausal person; experiment: Placebo-controlled single-dose, dose-escalation study in a human; assay type: in vivo
Source text: A range of single oral doses was used to assess safety, tolerance, and changes in primary hyperparathyroidism markers (e.g., plasma concentrations of parathyroid hormone and ionized serum calcium) and of serum calcitonin.

[2] = target: T2, osteoclast calcium receptor (Rattus norvegicus, UniProt P48442); experiment: [Ca2+]i (indo-1) in single rat osteoclasts; assay type: cell-based
T2 sequence (P48442 20-1079): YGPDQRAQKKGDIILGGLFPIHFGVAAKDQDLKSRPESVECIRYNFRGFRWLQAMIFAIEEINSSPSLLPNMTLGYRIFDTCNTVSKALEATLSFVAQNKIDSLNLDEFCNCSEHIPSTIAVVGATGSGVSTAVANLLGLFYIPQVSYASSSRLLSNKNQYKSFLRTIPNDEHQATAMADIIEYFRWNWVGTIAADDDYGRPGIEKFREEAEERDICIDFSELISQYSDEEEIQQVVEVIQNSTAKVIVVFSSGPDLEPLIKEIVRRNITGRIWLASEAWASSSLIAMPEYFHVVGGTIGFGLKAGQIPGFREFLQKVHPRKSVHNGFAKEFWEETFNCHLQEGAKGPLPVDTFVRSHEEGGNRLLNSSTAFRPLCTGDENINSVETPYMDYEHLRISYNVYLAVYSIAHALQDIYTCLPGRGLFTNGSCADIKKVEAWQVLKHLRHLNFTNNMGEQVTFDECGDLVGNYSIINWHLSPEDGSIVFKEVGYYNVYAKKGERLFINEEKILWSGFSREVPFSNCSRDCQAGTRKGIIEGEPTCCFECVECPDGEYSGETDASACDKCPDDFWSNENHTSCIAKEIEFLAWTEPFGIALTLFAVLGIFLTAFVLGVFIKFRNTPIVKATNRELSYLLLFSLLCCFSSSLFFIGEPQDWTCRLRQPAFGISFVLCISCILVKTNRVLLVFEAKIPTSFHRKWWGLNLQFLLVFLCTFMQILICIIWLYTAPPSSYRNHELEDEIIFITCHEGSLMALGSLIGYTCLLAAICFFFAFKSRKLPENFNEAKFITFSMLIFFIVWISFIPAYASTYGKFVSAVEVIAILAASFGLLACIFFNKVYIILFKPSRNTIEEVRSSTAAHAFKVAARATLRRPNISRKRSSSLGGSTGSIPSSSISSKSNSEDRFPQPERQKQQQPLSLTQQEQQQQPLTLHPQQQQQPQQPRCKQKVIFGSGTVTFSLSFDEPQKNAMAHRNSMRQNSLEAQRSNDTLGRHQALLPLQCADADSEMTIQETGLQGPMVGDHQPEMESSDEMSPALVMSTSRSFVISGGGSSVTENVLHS

COc1cccc([C@@H](C)NCCCc2ccccc2)c1 (single isomer, unassigned) [NPS R-467]
intracellular calcium (HuPCaR 5.2): Robust increases in intracellular calcium

COc1cccc([C@@H](C)NCCCc2ccccc2Cl)c1 [NPS R-568, (R)-(+)-N-[3-(2-chlorophenyl)propyl]-α-methyl-3-methoxybenzylamine]
Serum PTH ([1]; 20 mg single oral dose, 1 h): 18 pg/mL | Serum PTH ([1]; 240 mg single oral dose, 0.5 h): 18 pg/mL | serum ionized calcium concentration ([1]; at higher doses): decrease in serum ionized calcium concentration | serum calcitonin ([1]; at the doses studied): no apparent change in serum calcitonin | plasma PTH concentration ([1]; single oral doses): transient dose-dependent decrease in plasma PTH concentration

NC[C@@H]1O[C@H](O[C@H]2[C@@H](O)[C@H](O[C@@H]3[C@@H](O)[C@H](N)C[C@H](N)[C@H]3O[C@H]3O[C@H](CN)[C@@H](O)[C@H](O)[C@H]3N)O[C@@H]2CO)[C@H](N)[C@@H](O)[C@@H]1O [Neomycin B, neomycin B]
compounds that caused any large increase in [Ca2+]i [2]: none | effect on response to subsequent extracellular Ca2+ [2]: did not block the increase | increase in [Ca2+]i [2]: failed to evoke any increase | EC50 OSTEOCLAST ([2]; Table 6, rat osteoclasts, indo-1): inactive
